Laboratory results as given in ChEMBL document CHEMBL4196079, “Molecular interaction of novel benzothiazolyl triazolium analogues with calf thymus DNA and HSA-their biological investigation as potent antimicrobial agents” (Eur J Med Chem, 2018).
In brackets after ≈: the same amount, converted by molar mass.

Columns and labels:
[1] = system: Staphylococcus aureus; assay: Antibacterial activity against Staphylococcus aureus ATCC 25923 after 24 hrs by NCCLS micro broth dilution method; format: functional; details: ATCC 25923, 24 h
[2] = system: Escherichia coli; assay: Antibacterial activity against Escherichia coli DH52 after 24 hrs by NCCLS micro broth dilution method; format: functional; details: DH52, 24 h
[3] = system: Salmonella typhi; assay: Antibacterial activity against Salmonella typhi after 24 hrs by NCCLS micro broth dilution method; format: functional, Salmonella enterica subsp. enterica serovar Typhi; details: Salmonella enterica
[4] = system: Escherichia coli; assay: Antibacterial activity against Escherichia coli JM109 after 24 hrs by NCCLS micro broth dilution method; format: functional; details: JM109, 24 h
[5] = system: Pseudomonas aeruginosa; assay: Antibacterial activity against Pseudomonas aeruginosa ATCC 27853 after 24 hrs by NCCLS micro broth dilution method; format: functional; details: ATCC 27853, 24 h
[6] = system: Candida albicans; assay: Antifungal activity against Candida albicans ATCC 76615 after 24 hrs by NCCLS micro broth dilution method; format: functional; details: ATCC 76615, 24 h
[7] = system: Shigella dysenteriae; assay: Antibacterial activity against Shigella dysenteriae after 24 hrs by NCCLS micro broth dilution method; format: functional
[8] = system: Bacillus; assay: Antibacterial activity against Bacillus proteus ATCC 13315 after 24 hrs by NCCLS micro broth dilution method; format: functional; details: ATCC 13315, 24 h
[9] = system: Aspergillus flavus; assay: Antifungal activity against Aspergillus flavus after 24 hrs by NCCLS micro broth dilution method; format: functional
[10] = system: Saccharomyces cerevisiae; assay: Antifungal activity against Saccharomyces cerevisiae after 24 hrs by NCCLS micro broth dilution method; format: functional
[11] = system: Bacillus subtilis; assay: Antibacterial activity against Bacillus subtilis ATCC 21216 after 24 hrs by NCCLS micro broth dilution method; format: functional; details: ATCC 21216, 24 h
[12] = system: Staphylococcus aureus; assay: Antibacterial activity against methicillin-resistant Staphylococcus aureus N315 after 24 hrs by NCCLS micro broth dilution method; format: functional; details: N315, 24 h
[13] = system: Pichia norvegensis; assay: Antifungal activity against Candida mycoderma after 24 hrs by NCCLS micro broth dilution method; format: functional
[14] = system: Micrococcus luteus; assay: Antibacterial activity against Micrococcus luteus ATCC 4698 after 24 hrs by micro broth dilution method; format: functional; details: ATCC 4698, 24 h
[15] = system: Cyberlindnera jadinii; assay: Antifungal activity against Candida utilis after 24 hrs by NCCLS micro broth dilution method; format: functional; details: Williopsis jadinii

| SMILES | MIC [1] [µg/mL] | MIC [2] [µg/mL] | MIC [3] [µg/mL] | MIC [4] [µg/mL] | MIC [5] [µg/mL] | MIC [6] [µg/mL] | MIC [7] [µg/mL] | MIC [8] [µg/mL] | MIC [9] [µg/mL] | MIC [10] [µg/mL] | MIC [11] [µg/mL] | MIC [12] [µg/mL] | MIC [13] [µg/mL] | MIC [14] [µg/mL] | MIC [15] [µg/mL] |
| --- | --- | --- | --- | --- | --- | --- | --- | --- | --- | --- | --- | --- | --- | --- | --- |
| Fc1ccc(Cn2cc(COCc3c(-c4ccccc4)nc4sc5ccccc5n34)nn2)cc1 | 128 (≈ 273 µM) | 128 (≈ 273 µM) | 128 (≈ 273 µM) | 128 (≈ 273 µM) | 128 (≈ 273 µM) | 32 (≈ 68.2 µM) | 128 (≈ 273 µM) | 128 (≈ 273 µM) | 256 (≈ 545 µM) | 64 (≈ 136 µM) | 128 (≈ 273 µM) | 64 (≈ 136 µM) | 32 (≈ 68.2 µM) | 128 (≈ 273 µM) | 16 (≈ 34.1 µM) |
| CCCCCCn1cc(COCc2c(-c3ccccc3)nc3sc4cc(OCC)ccc4n23)nn1 | 128 (≈ 261 µM) | 128 (≈ 261 µM) | 128 (≈ 261 µM) | 64 (≈ 131 µM) | 128 (≈ 261 µM) | 64 (≈ 131 µM) | 128 (≈ 261 µM) | 128 (≈ 261 µM) | 128 (≈ 261 µM) | 32 (≈ 65.4 µM) | 128 (≈ 261 µM) | 64 (≈ 131 µM) | 16 (≈ 32.7 µM) | 128 (≈ 261 µM) | 16 (≈ 32.7 µM) |
| Clc1ccc(Cn2cc(COCc3c(-c4ccccc4)nc4sc5ccccc5n34)nn2)c(Cl)c1 | 64 (≈ 123 µM) | 16 (≈ 30.7 µM) | 64 (≈ 123 µM) | 64 (≈ 123 µM) | 8 (≈ 15.4 µM) | 32 (≈ 61.5 µM) | 64 (≈ 123 µM) | 32 (≈ 61.5 µM) | 256 (≈ 492 µM) | 64 (≈ 123 µM) | 64 (≈ 123 µM) | 32 (≈ 61.5 µM) | 32 (≈ 61.5 µM) | 32 (≈ 61.5 µM) | 32 (≈ 61.5 µM) |
| CCOc1ccc2c(c1)sc1nc(-c3ccccc3)c(COCc3cn(Cc4ccc([N+](=O)[O-])cc4)nn3)n12 | 128 (≈ 237 µM) | 128 (≈ 237 µM) | 4 (≈ 7.4 µM) | 2 (≈ 3.7 µM) | 128 (≈ 237 µM) | 32 (≈ 59.2 µM) | 128 (≈ 237 µM) | 32 (≈ 59.2 µM) | 128 (≈ 237 µM) | 16 (≈ 29.6 µM) | 256 (≈ 474 µM) | 128 (≈ 237 µM) | 8 (≈ 14.8 µM) | 512 (≈ 947 µM) | 4 (≈ 7.4 µM) |
| Fc1ccccc1Cn1cc(COCc2c(-c3ccccc3)nc3sc4ccccc4n23)nn1 | 64 (≈ 136 µM) | 128 (≈ 273 µM) | 64 (≈ 136 µM) | 128 (≈ 273 µM) | 128 (≈ 273 µM) | 32 (≈ 68.2 µM) | 128 (≈ 273 µM) | 128 (≈ 273 µM) | 128 (≈ 273 µM) | 64 (≈ 136 µM) | 128 (≈ 273 µM) | 32 (≈ 68.2 µM) | 16 (≈ 34.1 µM) | 64 (≈ 136 µM) | 16 (≈ 34.1 µM) |
| Clc1cccc(Cn2cc(COCc3c(-c4ccccc4)nc4sc5ccccc5n34)nn2)c1 | 64 (≈ 132 µM) | 64 (≈ 132 µM) | 64 (≈ 132 µM) | 64 (≈ 132 µM) | 32 (≈ 65.8 µM) | 8 (≈ 16.5 µM) | 32 (≈ 65.8 µM) | 64 (≈ 132 µM) | 128 (≈ 263 µM) | 64 (≈ 132 µM) | 32 (≈ 65.8 µM) | 32 (≈ 65.8 µM) | 16 (≈ 32.9 µM) | 32 (≈ 65.8 µM) | 32 (≈ 65.8 µM) |
| CCCCCn1cc(COCc2c(-c3ccccc3)nc3sc4ccccc4n23)nn1 | 64 (≈ 148 µM) | 32 (≈ 74.1 µM) | 4 (≈ 9.27 µM) | 64 (≈ 148 µM) | 128 (≈ 297 µM) | 32 (≈ 74.1 µM) | 4 (≈ 9.27 µM) | 64 (≈ 148 µM) | 256 (≈ 593 µM) | 32 (≈ 74.1 µM) | 64 (≈ 148 µM) | 8 (≈ 18.5 µM) | 16 (≈ 37.1 µM) | 128 (≈ 297 µM) | 8 (≈ 18.5 µM) |
| CCOc1ccc2c(c1)sc1nc(-c3ccccc3)c(COCc3cn(Cc4ccc(Cl)cc4)nn3)n12 | 64 (≈ 121 µM) | 64 (≈ 121 µM) | 64 (≈ 121 µM) | 64 (≈ 121 µM) | 32 (≈ 60.4 µM) | 32 (≈ 60.4 µM) | 64 (≈ 121 µM) | 64 (≈ 121 µM) | 128 (≈ 241 µM) | 64 (≈ 121 µM) | 64 (≈ 121 µM) | 64 (≈ 121 µM) | 16 (≈ 30.2 µM) | 32 (≈ 60.4 µM) | 64 (≈ 121 µM) |
| CCCCCCCn1cc(COCc2c(-c3ccccc3)nc3sc4cc(OCC)ccc4n23)nn1 | 128 (≈ 254 µM) | 128 (≈ 254 µM) | 128 (≈ 254 µM) | 64 (≈ 127 µM) | 128 (≈ 254 µM) | 32 (≈ 63.5 µM) | 128 (≈ 254 µM) | 128 (≈ 254 µM) | 128 (≈ 254 µM) | 64 (≈ 127 µM) | 128 (≈ 254 µM) | 64 (≈ 127 µM) | 32 (≈ 63.5 µM) | 128 (≈ 254 µM) | 64 (≈ 127 µM) |
| CCOc1ccc2c(c1)sc1nc(-c3ccccc3)c(COCc3cn(Cc4cccc(Cl)c4)nn3)n12 | 128 (≈ 241 µM) | 64 (≈ 121 µM) | 16 (≈ 30.2 µM) | 128 (≈ 241 µM) | 64 (≈ 121 µM) | 32 (≈ 60.4 µM) | 64 (≈ 121 µM) | 512 (≈ 966 µM) | 128 (≈ 241 µM) | 64 (≈ 121 µM) | 64 (≈ 121 µM) | 128 (≈ 241 µM) | 32 (≈ 60.4 µM) | 128 (≈ 241 µM) | 32 (≈ 60.4 µM) |
| CCn1cc(C(=O)O)c(=O)c2cc(F)c(N3CCNCC3)cc21 [NORFLOXACIN] | 2 (≈ 6.26 µM) | 1 (≈ 3.13 µM) | 4 (≈ 12.5 µM) | 1 (≈ 3.13 µM) | 16 (≈ 50.1 µM) |  | 16 (≈ 50.1 µM) | 8 (≈ 25.1 µM) |  |  | 4 (≈ 12.5 µM) | 8 (≈ 25.1 µM) |  | 2 (≈ 6.26 µM) |  |
